Reference: PubChem BioAssay (NCI)
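Following 48 hours of exposure in 96-well plates, responses at five concentrations were used to interpolate endpoints linearly. Here, GI50 denotes the concentration required for 50% inhibition of growth. TGI: concentration producing complete growth inhibition.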

Key:
Test in all cases: inhibition of tumour cell growth, NCI panel, 48 h
[1] = test system: OVCAR-3 ovarian
[2] = test system: MDA-MB-231 breast
[3] = test system: EKVX NSCLC
[4] = test system: SK-MEL-2 melanoma
[5] = test system: NCI-H23 lung
[6] = test system: NCI-H522 lung
[7] = test system: U251 CNS
[8] = test system: UACC-62 melanoma
[9] = test system: A549 NSCLC
[10] = test system: TK-10 renal

SMILES	TGI [1] [µM]	TGI [2] [µM]	TGI [3] [µM]	TGI [4] [µM]	TGI [5] [µM]	TGI [6] [µM]	TGI [7] [µM]	TGI [8] [µM]	TGI [9] [µM]	TGI [10] [µM]	GI50 [1] [µM]	GI50 [2] [µM]	GI50 [4] [µM]	GI50 [5] [µM]	GI50 [10] [µM]	GI50 [6] [µM]	GI50 [7] [µM]	GI50 [8] [µM]	GI50 [9] [µM]	GI50 [3] [µM]
CC(=O)N=C1N(/C=C2\C(=O)Oc3ccccc3C2=O)C(=O)/C(=C/c2ccc(Cl)cc2Cl)N1C	> 100	> 100	> 100	> 100	> 100	> 100	> 100	> 100	> 100											
COC(=O)[C@H](Cc1c[nH]c2ccccc12)NC(=O)c1ccc(CNC(=O)/C=C/c2cccc(Oc3ccccc3)c2)cc1	> 100	> 100	> 100	82.8	> 100		> 100	> 100	> 100	> 100										
CCNC(=O)c1c(O)c2ccccc2[nH]c1=O	> 100	> 100	> 100		> 100	> 100	> 100		> 100	> 100										
CCOC(=O)CC1(c2cccc3ccccc23)OC(=O)c2ccccc21 (stereo unspecified)	> 100		> 100	> 100	69.2	79.8	> 100	> 100	> 100	> 100										
Cc1ccc(/C=N/Nc2ccc3ccccc3n2)s1	28.9	65.9	32.2	> 100	> 100	77.8	67.6	> 100	40	> 100										
Clc1ccc(C(SCc2ccccc2)SCc2ccccc2)cc1	> 10	> 10	> 10	> 10	> 10	> 10	> 10	> 10	> 10	> 10										
Clc1ccc(C2Nc3ccccc3C3=NCCN32)cc1 (stereo unspecified)	> 100	> 100	93.7	41.3	55.4		78.6	32.3	> 100	39.5										
O=C(N/N=C1/C(=O)c2c3ccccc3cc3cccc1c23)c1ccccc1	> 100	> 100	> 100	> 94	> 100	> 100	98.3	> 78.1	> 100	78.5										
FC(F)(F)c1cccc(-c2nc3ccccc3c3c2[C@@]2(N4CCCC4)CCCC[C@@H]32)c1	> 100	49.3	> 100	41.3	> 100	31.8	71.4	56.3	> 100	89.8										
COc1ccc(CN=C(N)N)c2ccccc12	> 100		> 100	86.9	> 100	> 100	74.7	> 100	> 100	> 100										
c1csc(C[N+]23CN4CN(CN(C4)C2)C3)c1	> 100			37.3	> 100	> 100	45.7	47.5	87	79.5										
O=[N+]([O-])c1cc2c(cc1/C=N/n1c(CO)nc3ccccc31)OCO2	> 100	> 100	> 100	> 100	> 100		> 100	> 100	> 100	> 100										
Cc1noc(NC2=CC(=O)C(=O)c3ccccc32)c1C	> 100	> 100	> 100	5.8	35.5	79.2	> 100	22.9	55.3	> 100										
CCOP(=O)(OCC)C(C#N)Cc1ccco1 (stereo unspecified)	> 10	> 10	> 10	> 10	> 10		> 10	> 10	> 10	> 10										
O=C1OC(=O)c2cc(S(=O)(=O)c3ccc4c(c3)C(=O)OC4=O)ccc21	> 100	> 100	> 100	> 100	> 100	> 100	> 100	> 100	> 100	> 100										
COc1cc2c(cc1OC)C1(COc3cc(O)c(O)c(O)c3C1=O)C2 (stereo unspecified)	> 50	> 50		> 50	> 50	> 50	> 50	> 50	> 50	> 50										
CCOC(=O)CNc1nc(=O)c2c(=O)oc(Cl)cc2o1	25.5	59.1	29.6	44.5	38.5	17.3	85.3	39.9	40.6	28										
O=C1c2cc(Cl)ccc2NC(=NCCCl)C2CSCN12 (stereo unspecified)	> 100	> 100	> 100	> 100		> 100	> 100	> 100	> 100	> 100										
CC[C@H]1C=CCC[C@@]2(C[C@@H]3CC[C@H]4[C@@H](C(=O)OCCCCCCCCCCCCCCCC(=O)N(CCCN)C[C@@H](O)CCN)[C@@]5(CCC[C@@H](C)O5)NC(=[N+]34)N2)O1	> 10		3.25	3.29	3.51	3.07	3.05	3.5	3.35	3.04										
Nc1nc(N)c2cc(NCc3ccc(Cl)c(Cl)c3)ccc2n1	2.24	2.58		3.37	2.61	2.77	2.37	2.7	1.82	2.93	1.03	1.3	1.82	1.19	1.59	1.31	1.12	1.39	0.528	
COC(C)(C)C1(O)CCC(C)CC1=O (stereo unspecified)	> 100		> 100		> 100	> 100	> 100	> 100	> 100	> 100										
CCOC(=O)CC(=O)Nc1cccc2[nH]cnc12	> 100	> 100	> 100	> 100	> 100		> 100	> 100	> 100											
Cc1ccc(/C(O)=C/c2nc3ccccc3s/c2=N/CS(=O)(=O)c2ccc(C)cc2)cc1	> 10	> 10			> 10	> 10	> 10	> 10	> 10	> 10										

SMILES	TGI [1] [µM]	TGI [2] [µM]	TGI [3] [µM]	TGI [4] [µM]	TGI [5] [µM]	TGI [6] [µM]	TGI [7] [µM]	TGI [8] [µM]	TGI [9] [µM]	TGI [10] [µM]	GI50 [1] [µM]	GI50 [2] [µM]	GI50 [4] [µM]	GI50 [5] [µM]	GI50 [10] [µM]	GI50 [6] [µM]	GI50 [7] [µM]	GI50 [8] [µM]	GI50 [9] [µM]	GI50 [3] [µM]
CC(=O)N=C1N(/C=C2\C(=O)Oc3ccccc3C2=O)C(=O)/C(=C/c2ccc(NC(C)=O)cc2)N1C	> 100	> 100	> 100	> 100	> 100	> 100	> 100	> 100	> 100											
NC1=CN2c3ccccc3N(CC(=O)O)C2C=C1 (stereo unspecified)	> 100	> 100	> 100	> 100	> 100		> 100	> 100	> 100	> 100										
CC(C)C(/C=C/c1ccc(Cl)c(Cl)c1)=N\NC(=O)N/N=C(/C=C/c1ccc(Cl)c(Cl)c1)C(C)C	> 100	> 100	> 100		> 100	> 100	> 100	> 100		> 100										
O=C(NCc1cccc2ccccc12)N/N=C\c1ccc(Cl)cc1	> 100		> 100	> 100	> 100	> 100	> 100	> 100		> 100										
CC1=NN(c2nc(N)nc(CC#N)n2)C(C)(C)C1		> 100	> 100	> 100	> 100		> 100	> 100		> 100										
Cc1ccc(N(CC(=O)Nc2ccc(S(=O)(=O)N3CCC(N4CCCC4)CC3)cc2)S(=O)(=O)c2ccc(Cl)cc2)cc1	3.49		3.82	3.92	3.87	3.77	2.98		3.52	3.36	1.77		1.95	1.8	1.68	1.89	1.56		1.78	1.69
S=C(c1c[nH]c2ccccc12)N1CCN(Cc2ccccc2)CC1	29.4	32.9	41.8	34.1	42.8		33.6	33.7		> 100										
CC1=Nc2sc3c(c2C2=NCCN12)CCCC3	66.8	71.2	94.1	84.5	46.3	41	70.7	32		> 100										
Cc1cc(S(=O)(=O)Nc2nc(N)nc(N(C)C)n2)c(SCC(=O)O)cc1Cl	> 10		> 10	> 10	> 10	> 10	> 10		> 10	> 10										
Cc1ccc2nc(-c3ccc(N4C(=O)C(Cl)C4c4ccc(Cl)cc4)cc3)sc2c1 (stereo unspecified)	40.1	33	19.9		53.7		42.4	31.3	36.9	38.1										
COC(=O)c1cnc(Cl)cn1		> 100	> 100	> 100	54	5.33	> 100	> 100	> 100	> 100										
CC(C)C(N)=O				> 5000	> 5000	> 5000	> 5000	> 5000	> 5000	> 5000										
CC1C2(C)OC(=N)C(C#N)(C(c3cccc([N+](=O)[O-])c3)O2)C1(C#N)C#N (stereo unspecified)		32	98.3	61.7	> 100		53.8	42.7	> 100	> 100										
Nc1ccc(C(=O)c2cn(CCN3CCOCC3)c3ccccc23)c2ccccc12	> 100		90.8	> 100	68	> 100	> 100	> 100	> 100											
C/C=C/C1OC(O)(C(C)C(O)[C@H](C)C2OC(=O)/C(OC)=C/C(C)=C/[C@@H](C)[C@@H](O)[C@@H](C)C(O)C(C)C/C(C)=C/C=C/C2OC)C[C@@H](OC2CC(O)C(OC(N)=O)C(C)O2)C1C (stereo partly specified)	3.24		8.37	< 0.01	15.3	< 0.01	8.91	< 0.01	13.3	1.78										
C=C(OC1C(C)=C2C(C1OC(=O)CCCCCCC)C(C)(OC(C)=O)CC(OC(=O)CCC)C1(O)C2OC(=O)C1(C)O)/C(C)=C/C (stereo unspecified)			0.896	0.0642	3.82	1.11	1.73	0.0273	6.16		< 0.0001		< 0.0001	< 0.0001			< 0.0001		< 0.0001	< 0.0001
CC/C=C(\C(=C/CC)[N+](=O)[O-])[N+](=O)[O-]	30.5	36.2	29.8	> 100	34.3		34.3	33.6	> 100	33.7										
O=C1Nc2ccc(Cl)cc2/C1=C\c1c(Cl)nc2sccn12	12.4	> 100		> 100	> 100	> 100	> 100			> 100										
FC1C2=C(SC1(F)F)C1CCC2C1 (stereo unspecified)	> 100	> 100	> 100	> 100	> 100	> 100		> 100	> 100	> 100										
C[N+]1(CCCl)CC[N+](C)(CCCl)CC1 (stereo unspecified)	> 100	> 100	> 100	> 100	> 100		> 100	> 100	> 100	> 100										
NNC(=O)c1nnn(CCc2ccccc2)c1C(=O)NN	> 100	> 100	> 100	> 100	> 100		> 100		> 100	> 100										
Cc1ccc2oc(=O)c(C(=O)Nc3nc(C45CC6CC(CC(C6)C4)C5)cs3)cc2c1	> 100	> 100	> 100		> 100	> 100	> 100		> 100											
